Results on 14 molecules are retold here after ChEMBL document CHEMBL6092187, “Enantiomerically Pure Indazole Bioisosteres of Ifenprodil and Ro 25-6981 as Negative Allosteric Modulators of NMDA Receptors with the GluN2B Subunit” (J Med Chem, 2024).

Each structure is given as a SMILES string.

The nature of one series: in vitro. The following applies: mouse, liver microsomes.
A short description of a further series: physchem. The conditions noted are these: n-octanol/3-morpholinopropanesulfonic acid (MOPS) buffer, pH 7.4.
Series [1] deals with Glutamate receptor ionotropic, NMDA 2B (Homo sapiens, UniProt Q13224). Kind of series: Displacement of [3H]ifenprodil from human GluN2B receptor extracted from mouse LTK- cell membrane assessed as inhibition constant by competitive binding assay. The class given is cell membranes.
Sequence of Glutamate receptor ionotropic, NMDA 2B (Q13224 whole entry): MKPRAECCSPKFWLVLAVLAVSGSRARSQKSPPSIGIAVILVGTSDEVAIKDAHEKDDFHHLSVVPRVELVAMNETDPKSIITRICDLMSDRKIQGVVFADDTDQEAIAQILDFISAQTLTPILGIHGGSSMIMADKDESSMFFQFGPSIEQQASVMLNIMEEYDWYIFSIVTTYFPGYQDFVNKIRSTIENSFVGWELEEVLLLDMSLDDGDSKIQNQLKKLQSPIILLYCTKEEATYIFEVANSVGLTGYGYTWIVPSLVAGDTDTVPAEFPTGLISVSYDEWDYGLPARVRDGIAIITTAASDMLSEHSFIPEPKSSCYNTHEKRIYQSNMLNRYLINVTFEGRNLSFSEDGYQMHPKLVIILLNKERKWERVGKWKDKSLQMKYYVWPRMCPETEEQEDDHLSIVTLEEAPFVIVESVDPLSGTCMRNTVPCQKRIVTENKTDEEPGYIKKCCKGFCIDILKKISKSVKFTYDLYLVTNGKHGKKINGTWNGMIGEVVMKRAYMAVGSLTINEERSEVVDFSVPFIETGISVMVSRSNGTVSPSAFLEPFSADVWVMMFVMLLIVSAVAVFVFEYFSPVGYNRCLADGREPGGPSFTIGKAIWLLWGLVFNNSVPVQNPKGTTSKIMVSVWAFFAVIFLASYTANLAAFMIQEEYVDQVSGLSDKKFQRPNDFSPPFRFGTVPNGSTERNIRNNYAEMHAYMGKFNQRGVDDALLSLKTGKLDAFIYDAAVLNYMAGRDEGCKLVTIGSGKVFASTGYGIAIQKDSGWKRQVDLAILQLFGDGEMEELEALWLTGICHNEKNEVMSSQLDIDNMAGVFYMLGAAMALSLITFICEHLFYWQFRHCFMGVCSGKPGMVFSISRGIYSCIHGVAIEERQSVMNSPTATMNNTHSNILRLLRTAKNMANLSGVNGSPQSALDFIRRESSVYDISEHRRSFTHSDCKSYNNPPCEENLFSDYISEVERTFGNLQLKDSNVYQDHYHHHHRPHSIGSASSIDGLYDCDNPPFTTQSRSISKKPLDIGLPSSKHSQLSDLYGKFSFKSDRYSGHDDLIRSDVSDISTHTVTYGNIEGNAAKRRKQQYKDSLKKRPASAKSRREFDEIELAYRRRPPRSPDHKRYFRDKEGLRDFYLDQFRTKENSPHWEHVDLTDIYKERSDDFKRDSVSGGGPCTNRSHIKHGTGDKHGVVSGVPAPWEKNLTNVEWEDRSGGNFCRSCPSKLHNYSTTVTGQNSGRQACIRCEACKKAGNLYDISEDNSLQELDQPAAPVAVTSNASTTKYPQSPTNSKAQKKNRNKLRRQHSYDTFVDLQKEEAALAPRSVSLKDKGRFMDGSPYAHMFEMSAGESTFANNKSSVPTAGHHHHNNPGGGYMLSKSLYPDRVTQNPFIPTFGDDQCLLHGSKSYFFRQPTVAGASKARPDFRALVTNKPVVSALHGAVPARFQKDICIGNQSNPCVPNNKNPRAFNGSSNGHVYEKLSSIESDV
The target of another series is Albumin (Homo sapiens, UniProt P02768). Briefly: Binding affinity to human serum albumin measured after 60 mins by high performance affinity chromatography based LC-MS analysis. The conditions noted are these: 1 h.
Sequence of Albumin (P02768 whole entry): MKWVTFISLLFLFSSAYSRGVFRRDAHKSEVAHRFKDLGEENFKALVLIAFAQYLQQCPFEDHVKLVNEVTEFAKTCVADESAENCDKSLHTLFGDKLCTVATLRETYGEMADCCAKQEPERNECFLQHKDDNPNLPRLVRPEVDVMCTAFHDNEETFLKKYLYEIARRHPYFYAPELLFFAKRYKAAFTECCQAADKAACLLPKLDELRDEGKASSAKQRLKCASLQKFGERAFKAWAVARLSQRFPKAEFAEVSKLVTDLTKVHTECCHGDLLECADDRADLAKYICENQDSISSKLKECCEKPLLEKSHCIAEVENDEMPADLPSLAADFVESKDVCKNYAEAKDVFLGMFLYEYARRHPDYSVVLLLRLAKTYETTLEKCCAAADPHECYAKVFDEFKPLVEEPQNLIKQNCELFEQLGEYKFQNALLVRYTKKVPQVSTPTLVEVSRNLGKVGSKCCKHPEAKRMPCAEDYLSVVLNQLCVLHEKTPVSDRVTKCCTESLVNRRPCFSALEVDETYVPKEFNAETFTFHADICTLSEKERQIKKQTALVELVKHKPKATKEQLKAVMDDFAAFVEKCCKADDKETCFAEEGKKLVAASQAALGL
Series [2] can be described thus: Metabolic stability in human liver microsomes assessed as half-life at 10 uM measured after 120 mins by LC-MS/MS analysis. The class given is ADME, Microsome.
For series [3] the following is noted: mouse, microsomes, 1.5 h.
Description: Drug metabolism in mouse liver microsomes assessed as glucuronic acid conjugates formation measured after 90 mins in presence of UDP-GA by LC-MS analysis
The target of series [4] is T1, Sigma intracellular receptor 2 (Rattus norvegicus, UniProt Q5U3Y7).
T1 sequence (Q5U3Y7 whole entry): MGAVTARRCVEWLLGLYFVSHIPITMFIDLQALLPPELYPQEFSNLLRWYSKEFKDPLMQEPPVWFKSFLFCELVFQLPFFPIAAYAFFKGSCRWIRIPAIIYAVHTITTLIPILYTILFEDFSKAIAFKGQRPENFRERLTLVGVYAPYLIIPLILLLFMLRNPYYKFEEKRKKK
Kind of series: Displacement of [3H](+)-pentazocine from sigma2 receptor in rat liver membrane assessed as inhibition constant by competitive binding assay. The class given is cell membranes.

Series [5] addresses Sigma non-opioid intracellular receptor 1 (Cavia porcellus, UniProt Q60492). Kind of series: Displacement of [3H](+)-pentazocine from sigma1 receptor in guniea pig brain membrane assessed as inhibition constant by competitive binding assay. The class given is cell membranes.

Sequence of Sigma non-opioid intracellular receptor 1 (Q60492 whole entry): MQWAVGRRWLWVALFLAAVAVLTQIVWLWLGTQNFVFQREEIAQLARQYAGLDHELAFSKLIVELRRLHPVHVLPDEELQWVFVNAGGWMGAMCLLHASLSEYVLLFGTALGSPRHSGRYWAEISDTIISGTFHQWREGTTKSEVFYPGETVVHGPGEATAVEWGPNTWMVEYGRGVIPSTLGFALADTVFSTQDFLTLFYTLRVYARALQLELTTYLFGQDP
Description for in vitro: Metabolic stability in mouse liver microsomes assessed as parent compound remaining measured after 90 mins in presence of NADPH by HPLC analysis

In the case of `C[C@@H](CN1CCC(Cc2ccccc2)CC1)[C@@H](O)c1ccc(O)cc1`, the fraction remaining at 1.5 h in “in vitro” was 5%. In addition, the pH-dependent lipophilicity (logD) in “physchem” was 1.9. In addition, in series [1], the Ki stood at 135 nM. This molecule yielded an Activity on Albumin of 82%. In addition, in series [2], the half-life at 10 µM came to 23.7 min. For the same molecule, the Drug metabolism result in series [3] is reported as “metabolite_detected”.
For the molecule `C[C@@H](CN1CCC(Cc2ccccc2)CC1)[C@H](O)c1ccc2[nH]ncc2c1` (stereo in doubt; 10c), the Ki in series [4] amounted to 269 nM; in series [5], 46 nM. Besides, at Albumin, the Activity is 93%.
As for `C[C@H](CN1CCC(Cc2ccccc2)CC1)[C@H](O)c1ccc2[nH]ncc2c1` (stereo in doubt; 10ab), the figures for the Ki in series [4] and in series [5] were 388 nM and 56 nM, respectively.
In the case of `C[C@H]([C@@H](O)c1ccc2[nH]ncc2c1)N1CCC(Cc2ccccc2)CC1`, the Ki was 263 nM in series [4] and 313 nM in series [5]. Besides, the Activity at Albumin was found to be 92%.
On the same counts, the results for `C[C@@H]([C@@H](O)c1ccc2[nH]ncc2c1)N1CCC(Cc2ccccc2)CC1` are 556 nM, 523 nM and 91%.
For the molecule `C[C@@H]([C@H](O)c1ccc2[nH]ncc2c1)N1CCC(Cc2ccccc2)CC1` (stereo in doubt; 11ab), the figures for the Ki in series [4] and in series [5] were 245 nM and 38 nM, respectively.
`C[C@H](CN1CCC(Cc2ccccc2)CC1)[C@H](O)c1ccc2[nH]ncc2c1` (stereo in doubt; 10a): the inhibition constant (Ki) in series [4] was 111 nM; in series [5], 24 nM. On Albumin, the Activity was found to be 89%.
As to `C[C@H]([C@H](O)c1ccc2[nH]ncc2c1)N1CCC(Cc2ccccc2)CC1` (stereo in doubt; 11c), the results for the inhibition constant Ki in series [4] and in series [5] were 112 nM and 672 nM, respectively. Also, at Albumin, the Activity is given as 90%.
In the same order, the values of `C[C@H](CN1CCC(Cc2ccccc2)CC1)[C@@H](O)c1ccc2[nH]ncc2c1` are 42 nM, 43 nM and 93%.
Take `C[C@@H](CN1CCC(Cc2ccccc2)CC1)[C@H](O)c1ccc2[nH]ncc2c1` (stereo in doubt; 10cd): the figures for the Ki in series [4] and in series [5] were 57 nM and 44 nM, respectively.
In the same order, the values of `C[C@H]([C@H](O)c1ccc2[nH]ncc2c1)N1CCC(Cc2ccccc2)CC1` (stereo in doubt; 11cd) are 19 nM and 34 nM.
Consider `C[C@@H](CN1CCC(Cc2ccccc2)CC1)[C@@H](O)c1ccc2[nH]ncc2c1`, for which the figures for the Ki in series [4] and in series [5] were 209 nM and 21 nM, respectively. The Activity on Albumin came to 89%.
In turn, `CC(C(O)c1ccc(O)cc1)N1CCC(Cc2ccccc2)CC1` (configuration not stated) [IFENPRODIL] displayed a share remaining at 1.5 h in “in vitro” of 91.4%. For the same molecule, the log distribution coefficient (logD) in “physchem” turned out to be 1.43. Besides, the Activity at Albumin turned out to be 84%. The Drug metabolism result in series [3] is “metabolite_detected”.
As for `C[C@@H]([C@H](O)c1ccc2[nH]ncc2c1)N1CCC(Cc2ccccc2)CC1` (stereo in doubt; 11a), the Ki in series [4] is 33 nM; in series [5] it was 96 nM. On Albumin, this molecule gave an Activity of 92%.
